“Also recorded” adds a separate entry of the source.
B1: Secreted protein acidic and rich in cysteine (protein, listed as Homo sapiens)
chain: MRAWIFFLLCLAGRALAAPQQEALPDETEVVEETVAEVTEVSVGANPVQVEVGEFDDGAEETEEEVVAENPCQNHHCKHGKVCELDENNTPMCVCQDPTSCPAPIGEFEKVCSNDNKTFDSSCHFFATKCTLEGTKKGHKLHLDYIGPCKYIPPCLDSELTEFPLRMRDWLKNVLVTLYERDEDNNLLTEKQKLRVKKIHENEKRLEAGDHPVELLARDFEKNYNMYIFPVHWQFGQLDQHPIDGYLSHTELAPLRAPLIPMEHCTTRFFETCDLDNDKYIALDEWAGCFGIKQKDIDKDLVI
notes: 303 amino acid SPARC protein, also known as osteonectin

Legend:
MIP/CPT cells = assay: Transient transfection of SPARC fragments, cell viability (MTS) with irinotecan, resistant cells; format: cell-based; conditions: cells transfected with control (empty vector), 500 uM CPT-11
Procedure: Polynucleotide fragments corresponding to SEQ ID NO: 2, SEQ ID NO: 4 or SEQ ID NO: 6 were amplified by PCR and inserted into the pSecTag vector (Invitrogen), and verified by sequencing.
Colorectal cell lines MIP101 and MIP/CPT cells were maintained in Dulbecco's modified Eagle's medium (DMEM) (Invitrogen) supplemented with 10% fetal bovine serum (FBS) (Invitrogen), 1% penicillin/streptomycin (Invitrogen) at 37° C. and 5% CO2.
(§1) Resistant MIP101 cells were developed following long-term incubation with incremental concentrations of 5 fluorouracil (5-FU) (10-500 uM), irinotecan (CPT) (1-50 uM; Pharmacia), cisplatin (CIS) (1-100 uM) or etoposide (ETO) (0.1-5 uM: Sigma-Aldrich). The concentration of each agent was increased 10% every 2 weeks for a 6 month period.
Transient transfections were performed as previously described (Tai TC et al., 2001. J Neurochem; 76:1851-9) Briefly, MIP 101 colorectal cancer cells and resistant MIP/CPT cells grown to 50-60% confluency in 96-well tissue culture plates were transfected with 1.0 μg of vector (control) or vector+SPARC fragments using PEI transfection (Tai, T. C. et al., 2002. Mol Pharmacol 61:1385-92). […] Cell proliferation was assessed by MTS assay (Promega). […]

MIP/5FU cells = assay: Peptide assay, cell viability (MTS), 5FU resistant cells; format: cell-based; conditions: for cell viability / sensitivity to 5-FU: peptide 96 or 200 μg/ml plus 5-FU 500 μM, compared to 5-FU alone
Procedure: as §1
(§2) Sensitive MIP 101 and resistant MIP/5FU cells were seeded at a density of 8,000 cells/well (96-well plate) in DMEM supplemented with 10% FBS, 1% penicillin/streptomycin. After incubation at 37° C. with 5% CO2 for 48 hrs, the media was removed and fresh serum-free conditioned medium (VP-SFM, Invitrogen) containing the peptide of interest was incubated for an additional 48 hrs in the presence or absence of 500 μM 5-FU. Cell viability was assessed by MTS assay.
(§3) Peptides were custom synthesized by Sigma. Peptides A, A1, A2, A3 were dissolved in 0.1% DMSO. Peptides B8, B14, B8-scramble and B14-scramble were dissolved in PBS. For the MTS cell viability assay, a dose response curve was obtained using a “high” peptide concentration of 200 μg/ml, and a “low” peptide concentration of […].
(§4) For the MTS assay, 3-(4,5-dimethylthiazol-2-yl)-5-(3-carboxy-methoxyphenyl)-2-(4-sulfophenyl)-2H-tetrazolium inner salt (MTS) and phenazine methosulfate (PMS), purchased from Promega (Madison, Wis.), were mixed in the proportions 2:0.92 μg/ml, and 25 μl of the mixture was added to each well. After incubation at 37° C. with 5% CO2 for 2 h, the absorbance of each well at 490 nm was measured in a 96-well plate reader (Versa Max, version 4.8, Molecular Devices Co.) according to the manufacturer's instructions. Cell viability was expressed as a percentage of control.

MIP 101 cells = assay: Peptide assay, cell viability (MTS), 5FU sensitive cells; format: cell-based; conditions: for cell viability: 96 or 200 μg/ml
Procedure: as §2, §3, §4

resistant tumours = conditions: protein administered; response of resistant tumours to 5-fluorouracil, irinotecan, cisplatin or etoposide; cited from earlier work
[1] = peptide alone, high concentration (200 μg/ml)
[2] = peptide high concentration (200 μg/ml) in combination with 5-FU 500 μM

Molecule | % cell viability (MIP/5FU cells; [1]) | % cell viability (MIP/5FU cells; [2]) | % cell viability (MIP 101 cells; [1]) | % cell viability (MIP 101 cells; [2]) | further results
CCc1c2c(nc3ccc(OC(=O)N4CCC(N5CCCCC5)CC4)cc13)-c1cc3c(c(=O)n1C2)COC(=O)[C@]3(O)CC [CPT-11, irinotecan] | – | – | – | – | cell viability (MIP/CPT cells): remained viable
O=c1[nH]cc(F)c(=O)[nH]1 [Peptide 5-FU, 5-fluorouracil, reference compound] | – | – | – | – | cell viability (MIP/5FU cells; 5-FU alone (500 μM)): greater viability; also recorded: no effect on cell viability
A1: first 17 amino acids of the full length SPARC protein: MRAWIFFLLCLAGRALA (listed as Homo sapiens) [Peptide A1] | did not significantly affect | did not significantly affect | did not significantly affect | did not significantly affect | –
A2: first 17 amino acids of SPARC with additional N-terminal residues: ACLPLRVPSTMRAWIFFLLCLAGRALA (listed as Homo sapiens) [Peptide A2] | did not significantly affect | did not significantly affect | did not significantly affect | did not significantly affect | –
A3: first 17 amino acids of SPARC with additional N-terminal residues: CLPPACLPLRVPSTMRAWIFFLLCLAGRALA (listed as Homo sapiens) [Peptide A3] | did not significantly affect | did not significantly affect | did not significantly affect | did not significantly affect | –
A: first 17 amino acids of full length SPARC with additional N-terminal residues: ESALCLPPACLPLRVPSTMRAWLFFLLCLAGRALA (ESALCLPPACLPLRVPSTMRAWIFFLLCLAGRALA; listed as Homo sapiens) | did not significantly affect | did not significantly affect | did not significantly affect | did not significantly affect | –
B8-SCR: scrambled B8 negative control peptide QPLEAVQPTAVEEDAEVETTEEV (B8 scrambled) [Peptide B8-SCR, reference compound] | did not significantly affect | did not significantly affect | did not significantly affect | did not significantly affect | –
B14: SPARC peptide CQNHHCKHGKVCELDENNTPMCVCQDPTSCP (SEQ ID NO: 9) (listed as Homo sapiens) [Peptide B14] | – | – | – | – | cell viability / sensitivity to 5-FU (MIP/5FU cells): cell viability decreased; cell viability (MIP/5FU cells; peptide alone, 96 or 200 μg/ml): did not significantly affect viability; cell viability (MIP 101 cells; peptide alone): did not significantly affect viability
H-APQQEALPDETEVVEETVAEVTE-OH [Peptide B8] | – | – | – | – | cell viability / sensitivity to 5-FU (MIP/5FU cells): increasing sensitivity of the resistant cells; cell viability (MIP/5FU cells; peptide alone, 96 or 200 μg/ml): did not affect cell viability; cell viability (MIP 101 cells; peptide alone): did not affect cell viability
B1 | – | – | – | – | chemosensitizing activity (resistant tumours): chemosensitizing activity has been demonstrated

— patent publication US8440625B2, “Secreted protein acidic and rich in cysteine (SPARC) as chemotherapeutic sensitizers” (University of British Columbia, priority 2006, dated 2013)
